How the values were obtained:
Kv1.2 = molecular target: T1, Kv1.2 (Homo sapiens, UniProt P16389); assay: Patch clamp assay (QPatch), Kv1.2; assay type: cell-based; settings: for IC50: QPatch, CHO cells stably expressing human Kv1.2, read-out: Potency IC50, Kv1.2; for Selectivity Kv1.2/Kv1.3: ratio of IC50 Kv1.2/Kv1.3
T1 construct: expressed in transfected cells
Experimental: (§1) Selectivity of Kv1.3 inhibitor peptides for Kv1.3 over other potassium ion channels (Kv1.1, Kv1.2 and Kv1.6) was determined using patch clamp assay.
(§2) Chinese Hamster Ovary (CHO) cell lines stably expressing exogenous human α-subunits of each potassium ion channel were grown and passaged under standard culture conditions.
(§3) The automated, chip-based planar patch clamp device QPatch® was used to quantitate the ionic currents. All recordings were made in the conventional whole-cell configuration after establishment of gigaohm seals. […] During experiments 0.1% (v/v) BSA was included as a vehicle in all external recording solutions. Currents were elicited from a holding potential of −80 mV using a voltage protocol, which shifted the voltage to 30 mV for 500 ms every 15 s.
(§4) Concentration-response relationships were established by cumulatively applying seven escalating concentrations of test sample to an individual cell with a recording period of 2 min per compound application.
(§5) The efficacy was determined as the mean charge for the last three sweeps at the end of each concentration application period from the cursor positions. The percent inhibition for each test dose application period was calculated as the reduction in mean cursor value (charge) relative to the cursor value measured at the end of the vehicle period and used to calculate the IC50 from the concentration response curve.

Kv1.1 = molecular target: T2, Kv1.1 (Homo sapiens, UniProt Q09470); assay: Patch clamp assay (QPatch), Kv1.1; assay type: cell-based; settings: for IC50: QPatch, CHO cells stably expressing human Kv1.1, read-out: Potency IC50, Kv1.1; for Selectivity Kv1.1/Kv1.3: ratio of IC50 Kv1.1/Kv1.3
T2 construct: expressed in transfected cells
T2 sequence (Q09470 whole entry): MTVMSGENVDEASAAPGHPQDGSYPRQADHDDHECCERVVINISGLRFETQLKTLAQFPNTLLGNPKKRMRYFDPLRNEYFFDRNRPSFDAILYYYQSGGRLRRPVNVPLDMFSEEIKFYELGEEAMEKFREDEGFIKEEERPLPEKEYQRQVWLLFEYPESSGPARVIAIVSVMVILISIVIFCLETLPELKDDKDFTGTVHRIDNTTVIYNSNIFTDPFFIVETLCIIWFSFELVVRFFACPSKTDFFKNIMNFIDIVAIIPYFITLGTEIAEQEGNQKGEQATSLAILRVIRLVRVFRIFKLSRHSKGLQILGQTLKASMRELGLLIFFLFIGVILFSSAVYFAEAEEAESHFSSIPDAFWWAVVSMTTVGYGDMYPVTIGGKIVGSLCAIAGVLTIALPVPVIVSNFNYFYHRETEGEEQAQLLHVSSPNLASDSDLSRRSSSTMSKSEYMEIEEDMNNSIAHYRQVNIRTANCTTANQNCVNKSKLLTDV
Experimental: as §1, §2, §3, §4, §5

Kv1.3 = molecular target: T3, Kv1.3 (Homo sapiens, UniProt P22001); assay: Patch clamp assay (QPatch), Kv1.3; assay type: cell-based; settings: CHO cells stably expressing human Kv1.3, read-out: Potency IC50, Kv1.3
T3 construct: expressed in transfected cells
T3 sequence (P22001 whole entry): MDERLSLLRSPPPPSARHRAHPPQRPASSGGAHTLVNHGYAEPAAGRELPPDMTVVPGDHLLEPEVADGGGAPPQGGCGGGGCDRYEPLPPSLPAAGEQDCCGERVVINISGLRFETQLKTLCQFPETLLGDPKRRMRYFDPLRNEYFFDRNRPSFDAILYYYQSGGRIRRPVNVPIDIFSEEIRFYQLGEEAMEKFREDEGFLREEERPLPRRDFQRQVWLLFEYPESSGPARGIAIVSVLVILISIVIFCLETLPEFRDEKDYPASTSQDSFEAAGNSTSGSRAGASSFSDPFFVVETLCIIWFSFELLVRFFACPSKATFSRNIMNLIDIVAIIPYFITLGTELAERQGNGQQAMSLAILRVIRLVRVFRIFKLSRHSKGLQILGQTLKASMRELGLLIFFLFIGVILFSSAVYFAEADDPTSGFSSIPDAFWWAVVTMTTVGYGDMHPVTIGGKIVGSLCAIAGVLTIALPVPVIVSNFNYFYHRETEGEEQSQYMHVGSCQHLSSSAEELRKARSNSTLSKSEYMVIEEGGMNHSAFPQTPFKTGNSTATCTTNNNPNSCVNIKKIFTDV
Experimental: as §1, §2, §3, §4, §5

Kv1.6 = molecular target: T4, Kv1.6 (Homo sapiens, UniProt P17658); assay: Patch clamp assay (QPatch), Kv1.6; assay type: cell-based; settings: for IC50: QPatch, CHO cells stably expressing human Kv1.6, read-out: Potency IC50, Kv1.6; for Selectivity Kv1.6/Kv1.3: ratio of IC50 Kv1.6/Kv1.3
T4 construct: expressed in transfected cells
T4 sequence (P17658 whole entry): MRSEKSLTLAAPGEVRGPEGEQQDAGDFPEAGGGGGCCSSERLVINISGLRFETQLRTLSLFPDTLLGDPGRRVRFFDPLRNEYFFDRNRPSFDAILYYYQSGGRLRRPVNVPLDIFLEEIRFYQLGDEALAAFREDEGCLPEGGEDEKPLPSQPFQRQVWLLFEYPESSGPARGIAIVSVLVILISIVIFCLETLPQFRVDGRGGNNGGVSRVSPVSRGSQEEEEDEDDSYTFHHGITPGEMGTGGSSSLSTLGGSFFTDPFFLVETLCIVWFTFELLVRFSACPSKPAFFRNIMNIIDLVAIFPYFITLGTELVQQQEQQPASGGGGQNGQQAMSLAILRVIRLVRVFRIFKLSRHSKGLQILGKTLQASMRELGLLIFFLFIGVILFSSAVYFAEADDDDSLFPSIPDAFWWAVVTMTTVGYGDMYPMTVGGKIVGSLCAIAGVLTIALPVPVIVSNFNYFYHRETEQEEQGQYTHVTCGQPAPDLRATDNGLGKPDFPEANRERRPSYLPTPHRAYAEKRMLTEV
Experimental: as §1, §2, §3, §4, §5

[1] = system: T-cell activation in rat whole blood; assay: Example 4: IL-17A release in thapsigargin stimulated rat whole blood; assay type: cell-based, rat (Lewis or Sprague-Dawley); settings: 24 Hr, at least 2 replicates, unit inferred, read-out: IC50 (inhibition of IL-17A release)
Text: Rat whole blood was used to assess the potency of Kv1.3 inhibitor peptides on T-cell activation as determined by IL-17A release after stimulation with thapsigargin. Addition of thapsigargin results in activation of a signalling cascade ending up in activation of T cell proliferation and cytokine production where the Kv1.3 ion channel plays a key role, so activity of Kv1.3 inhibitors in primary cells can be measured in this experimental system.
Rat whole blood was obtained from healthy, naïve Lewis or Sprague-Dawley rats that were terminally bleed from the heart using Sodium Heparin blood sampling tubes for collection. Peptides were diluted to 4× final testing concentrations in assay buffer (DMEM+GlutaMAX), GlutaMAX is a medium comprising 3.97 mM L-alanine-L-glutamine (Gibco Cat #61965026) supplemented with 25 mM HEPES buffer, 1 mM Sodium Pyruvate, 100 units/ml Penicillin, 100 μg/ml Streptomycin and 0.05% Casein from bovine milk (Sigma-Aldrich)) and 25 μl was added to wells of a 96 well plate. Then 50 μl whole rat blood was added and incubated for minimum 5 minutes at room temperature to allow compound binding. Then 25 μl 40 μM thapsigargin diluted in assay buffer was added to all wells of the assay plates to activate the cells, followed by incubation for 24 Hr at 37° C./5% CO2 in a humidified box. The assay plates were centrifuged for 10 min at 300 g at 4° C. and the supernatants were transferred to new plates. The concentrations of IL-17A released to the supernatants were measured using a Rat IL-17A ELISA Kit (Abcam Cat #ab214028) as recommended by the manufacturer. Samples were diluted 2.5-fold by transferring 20 μl of the supernatants to wells on ELISA plates containing 30 μl buffer 75BS from the detection kit.
Data from peptides eliciting an inhibition of IL-17A were normalised relative to full thapsigargin activation (no inhibitor added) and no activation controls (addition of assay buffer instead of thapsigargin) to calculate the IC50 from the concentration response curve.
Results are shown in Table 5, expressed as IC50, with standard deviation (IC50_SD). All values are derived from at least 2 replicates. The biological effects ex vivo show a correlation with the potency of the peptides.

T1 sequence (P16389 whole entry): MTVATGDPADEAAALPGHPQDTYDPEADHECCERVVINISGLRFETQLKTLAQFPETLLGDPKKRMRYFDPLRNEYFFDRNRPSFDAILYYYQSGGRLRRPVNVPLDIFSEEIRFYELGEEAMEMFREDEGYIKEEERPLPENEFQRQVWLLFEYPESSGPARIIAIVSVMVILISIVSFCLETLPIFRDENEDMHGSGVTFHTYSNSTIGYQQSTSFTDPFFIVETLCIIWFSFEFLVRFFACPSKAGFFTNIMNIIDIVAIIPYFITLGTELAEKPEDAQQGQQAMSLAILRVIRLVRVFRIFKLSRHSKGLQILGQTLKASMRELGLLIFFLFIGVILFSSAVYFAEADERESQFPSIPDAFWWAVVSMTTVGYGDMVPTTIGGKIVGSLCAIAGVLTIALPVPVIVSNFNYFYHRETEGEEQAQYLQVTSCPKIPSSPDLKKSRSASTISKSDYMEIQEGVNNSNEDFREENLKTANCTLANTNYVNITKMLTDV

Substance | IC50 (Kv1.2) | Selectivity Kv1.2/Kv1.3 (Kv1.2) | IC50 (Kv1.1) | Selectivity Kv1.1/Kv1.3 (Kv1.1) | IC50 (Kv1.3) | IC50 (Kv1.6) | Selectivity Kv1.6/Kv1.3 (Kv1.6) | IC50 [1]
Ac-C(1)SASVEC(2)KQKC(3)LKAIGSIFGKC(1)[Nle]NKKC(2)KC(3)YPR-NH2 [Peptide 109] | 384 nM | 1591 | > 3000 nM | >12400 | 0.24 nM | > 3000 nM | >12400 | 0.88 nM
H-S[Nle]D[Nle]RC(1)SASVEC(2)KQKC(3)LKAIGSIFGKC(1)MNKKC(2)KC(3)[F(4-NH2)]PR-NH2 [Peptide 72] | 423 nM | 1720 | > 3000 nM | >12200 | 0.25 nM | > 3000 nM | >12200 | 0.79 nM
Ac-SKC(1)SASVEC(2)KQKC(3)LKAIGSIFGKC(1)[Nle]NKKC(2)KC(3)YPR-NH2 [Peptide 113] | 196 nM | 196 | > 3000 nM | >3000 | 1 nM | 1450 nM | 1451 | 0.36 nM
H-RC(1)SASVEC(2)KQKC(3)LKAIGSIFGKC(1)[Nle]NKKC(2)KC(3)YPR-NH2 [Peptide 111] | 280 nM | 708 | > 3000 nM | >7600 | 0.4 nM | 1300 nM | 3290 | 0.52 nM
H-NMDMRC(1)SASREC(2)KQKC(3)LKAIGSIFGKC(1)MNKKC(2)KC(3)YPR-NH2 [Peptide 28] | 11 nM | 94 | > 3000 nM | >25900 | 0.12 nM | 206 nM | 1778 | 0.68 nM
H-P[Nle]D[Nle]RC(1)SASVEC(2)KQKC(3)LKAIGC(4)IFGKC(1)[Nle]NKKC(2)KC(3)YPC(4)-NH2 [Peptide 85] | 624 nM | 995 | > 3000 nM | >4800 | 0.63 nM | 1220 nM | 1949 | 0.81 nM
H-N[Nle]D[Nle]RC(1)RASVEC(2)KQKC(3)LKAIGSIFGKC(1)[Nle]NKKC(2)KC(3)YPR-NH2 [Peptide 43] | 109 nM | 674 | > 3000 nM | >18600 | 0.16 nM | 316 nM | 1954 | 0.91 nM
H-N[Nle]D[Nle]RC(1)SASKEC(2)KQKC(3)LKAIGSIFGKC(1)[Nle]NKKC(2)KC(3)YPR-NH2 [Peptide 64] | 184 nM | 587 | > 3000 nM | >9600 | 0.31 nM | 1230 nM | 3929 | 0.68 nM
H-N[Nle]D[Nle]RC(1)SASVEC(2)KQKC(3)LKAIGSPFGKC(1)[Nle]NKKC(2)KC(3)YPR-NH2 [Peptide 63] | 449 nM | 1740 | > 3000 nM | >11600 | 0.26 nM | 2350 nM | 9102 | 0.44 nM
H-NMDMRC(1)SASVEC(2)KEKC(3)LKAIGSIFGKC(1)MNKKC(2)KC(3)YPR-NH2 [Peptide 32] | 179 nM | 648 | > 3000 nM | >10800 | 0.28 nM | > 3000 nM | >10800 | 0.86 nM
H-P[Nle]E[Nle]RC(1)SASVEC(2)KQKC(3)LAAIGSIFGKC(1)[Nle]NKKC(2)KC(3)YPR-NH2 [Peptide 101] | 311 nM | 1689 | > 3000 nM | >16200 | 0.18 nM | > 3000 nM | >16200 | 0.34 nM
H-NMDMRC(1)SASVEC(2)KQLC(3)LKAIGSIFGKC(1)MNKKC(2)KC(3)YPR-NH2 [Peptide 19] | 256 nM | 1080 | > 3000 nM | >12700 | 0.24 nM | > 3000 nM | >12700 | 3.2 nM
H-S[Nle]D[Nle]RC(1)SASVEC(2)GQKC(3)LKAIGSIFGKC(1)MNKKC(2)KC(3)YPR-NH2 [Peptide 73] | 373 nM | 3438 | > 3000 nM | >27700 | 0.11 nM | > 3000 nM | >27700 | 0.3 nM
H-NMDMRC(1)SASVEC(2)KQKC(3)LKAIRSIFGKC(1)MNKKC(2)KC(3)YPR-NH2 [Peptide 22] | 57 nM | 259 | > 3000 nM | >13700 | 0.22 nM | 626 nM | 2851 | 0.82 nM
H-C(1)SASVEC(2)KQKC(3)LKAIGSIFGKC(1)MNKKC(2)KC(3)YPR-OH [Peptide 124] | 1830 nM | 878 | > 3000 nM | >1400 | 2.09 nM | > 3000 nM | >1400 | 1.9 nM
H-NMDMRC(1)SASVEC(2)LQKC(3)LKAIGSIFGKC(1)MNKKC(2)KC(3)YPR-NH2 [Peptide 30] | 874 nM | 2163 | > 3000 nM | >7400 | 0.4 nM | > 3000 nM | >7400 | 0.76 nM
H-NMDMRC(1)SASVEC(2)KQKC(3)LKAIGSIFGKC(1)MNKKC(2)HC(3)YPR-NH2 [Peptide 38] | 338 nM | 1816 | > 3000 nM | >16100 | 0.19 nM | > 3000 nM | >16100 | 0.77 nM
H-N[Nle]D[Nle]RC(1)SASVEC(2)KQKC(3)KAIGSIFGKC(1)[Nle]NKKC(2)KC(3)YPR-NH2 [Peptide 50] | 164 nM | 123 | > 3000 nM | >2200 | 1.34 nM | 946 nM | 707 | 1 nM
H-N[Nle]D[Nle]RC(1)SASVEC(2)KKKC(3)LKAIGSIFGKC(1)[Nle]NKKC(2)KC(3)YPR-NH2 [Peptide 46] | 257 nM | 343 | > 3000 nM | >4000 | 0.75 nM | > 3000 nM | >4000 | 1.4 nM
H-NMDMRC(1)SASVEC(2)KQKC(3)LKAIESIFGKC(1)MNKKC(2)KC(3)YPR-NH2 [Peptide 23] | 181 nM | 615 | > 3000 nM | >10200 | 0.29 nM | > 3000 nM | >10200 | 2.8 nM
H-S[Nle]DERC(1)SASVEC(2)KQKC(3)LKAIGSIFGKC(1)MNKKC(2)KC(3)YPR-NH2 [Peptide 78] | 122 nM | 430 | > 3000 nM | >10600 | 0.28 nM | > 3000 nM | >10600 | 0.55 nM
H-[Nle]D[Nle]RC(1)SASVEC(2)KQKC(3)LKAIGSIFGKC(1)[Nle]NKKC(2)KC(3)YPR-OH [Peptide 97] | 1860 nM | 11034 | > 3000 nM | >17800 | 0.17 nM | > 3000 nM | >17800 | 0.55 nM
